Assay results taken from patent US11414404B2, “Compounds for the treatment of BRAF-associated diseases and disorders” (Array BioPharma Inc., priority 2019, dated 2022).
Counter-ions that a name gives are not always drawn. Like-named read-outs stand apart in the source and are kept apart here.

Assays:
[1] = molecular target: full-length FLAG-tagged B-Raf(V600E) (Homo sapiens (Human), UniProt P15056, V600E); assay: BRAF V600E enzyme assay (TR-FRET competitive displacement of fluorescent tracer); format: binding
Sequence of full-length FLAG-tagged B-Raf(V600E) (P15056 whole entry V600E): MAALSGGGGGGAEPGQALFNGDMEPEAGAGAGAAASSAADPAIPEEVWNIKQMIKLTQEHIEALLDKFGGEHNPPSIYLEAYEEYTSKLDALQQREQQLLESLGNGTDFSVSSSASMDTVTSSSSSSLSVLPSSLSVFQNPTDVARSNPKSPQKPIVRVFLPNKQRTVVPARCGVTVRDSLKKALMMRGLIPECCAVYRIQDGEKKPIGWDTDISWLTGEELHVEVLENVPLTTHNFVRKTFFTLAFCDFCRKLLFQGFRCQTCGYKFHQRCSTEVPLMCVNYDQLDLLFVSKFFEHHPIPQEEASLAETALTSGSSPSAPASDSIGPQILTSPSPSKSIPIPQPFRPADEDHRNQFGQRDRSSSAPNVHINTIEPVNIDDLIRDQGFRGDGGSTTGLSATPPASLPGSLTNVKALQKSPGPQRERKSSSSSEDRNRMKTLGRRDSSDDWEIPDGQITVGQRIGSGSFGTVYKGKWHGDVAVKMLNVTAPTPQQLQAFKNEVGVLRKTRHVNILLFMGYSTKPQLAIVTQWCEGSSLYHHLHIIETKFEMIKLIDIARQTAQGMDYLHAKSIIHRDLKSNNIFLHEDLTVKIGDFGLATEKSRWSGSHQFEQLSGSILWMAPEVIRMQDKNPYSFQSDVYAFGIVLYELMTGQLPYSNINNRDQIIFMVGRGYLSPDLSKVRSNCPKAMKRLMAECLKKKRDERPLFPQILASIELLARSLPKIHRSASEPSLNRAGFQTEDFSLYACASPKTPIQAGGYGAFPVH
Text: A competitive displacement assay was configured for B-Raf that monitors the amount of a fluorescently-tagged “tracer” bound to B-Raf via TR-FRET from an anti-tag Eu-labeled antibody also bound to B-Raf.
[formula] • where: • Xmax Average Uninhibited Controls • Xmin Average Background
A 4-parameter logistic model was the fit to the POC data for each compound.

[2] = molecular target: BCRP (Homo sapiens (Human), UniProt Q9UNQ0); assay: BCRP MDCKII permeability assay: efflux ratio; conditions: dog
Sequence of BCRP (Q9UNQ0 whole entry, species assumed): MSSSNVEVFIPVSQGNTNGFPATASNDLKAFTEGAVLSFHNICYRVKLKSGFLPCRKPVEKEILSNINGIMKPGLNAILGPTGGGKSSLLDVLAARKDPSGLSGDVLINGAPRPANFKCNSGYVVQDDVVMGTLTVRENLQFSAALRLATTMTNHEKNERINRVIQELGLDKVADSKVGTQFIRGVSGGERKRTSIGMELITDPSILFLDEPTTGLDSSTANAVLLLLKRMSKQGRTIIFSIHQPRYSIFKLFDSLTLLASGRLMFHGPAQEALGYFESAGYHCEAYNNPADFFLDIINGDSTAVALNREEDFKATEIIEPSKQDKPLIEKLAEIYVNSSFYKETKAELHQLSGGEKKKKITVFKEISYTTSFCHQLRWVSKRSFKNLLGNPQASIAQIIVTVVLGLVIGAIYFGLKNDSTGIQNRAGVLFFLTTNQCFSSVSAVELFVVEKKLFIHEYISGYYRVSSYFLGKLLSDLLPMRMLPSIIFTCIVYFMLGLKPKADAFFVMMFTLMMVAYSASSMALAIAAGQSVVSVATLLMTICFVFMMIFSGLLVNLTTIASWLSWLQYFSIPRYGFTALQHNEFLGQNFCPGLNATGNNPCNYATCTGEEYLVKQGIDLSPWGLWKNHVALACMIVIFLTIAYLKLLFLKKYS
Protocol: (§1) BCRP transfected MDCKII cells were cultured and plated according to manufacturer's recommendations. Assay conditions included with and without the BCRP-specific inhibitor, K0143, at a concentration of 0.3 μM to ascertain the contribution of BCRP to the efflux value of the test compound.
(§2) Both positive and negative controls were used to assess functionality of P-gp or BCRP efflux in the assays. […] Final organic concentration in the assay was 1%. All dosing solutions contained 10 μM lucifer yellow to monitor LLC-PK1 or MDCKII cell monolayer integrity.
(§3) For the apical to basolateral determination (A to B), 75 μL of the test article in transport buffer were added to the apical side of the individual transwells and 250 μL of basolateral media, without compound or lucifer yellow, were added to each well. For the basolateral to apical determination (B to A), 250 μL of test article in transport buffer were added to each well and 75 μL transport buffer, without compound or lucifer yellow, were added to each transwell. All tests were performed in triplicate, and each compound was tested for both apical to basolateral and basolateral to apical transport. The plates were incubated for 2 hours on a Lab-Line Instruments Titer Orbital Shaker (VWR, West Chester, Pa.) at 50 rpm and 37° C. with 5% CO2. All culture plates were removed from the incubator and 50 μL of media were removed from the apical and basolateral portion of each well and added to 150 μL of 1 μM labetalol in 2:1 acetonitrile (acetonitrile): H2O, v/v.
(§4) These values were accepted when found to be below 2% for apical to basolateral and 5% basolateral to apical flux across the MDR1-transfected LLC-PK1 or BCRP-transfected MDCKII cell monolayers. The plates were sealed and the contents of each well analyzed by LC-MS/MS. The compound concentrations were determined from the ratio of the peak areas of the compound to the internal standard (labetalol) in comparison to the dosing solution.
(§5) The LC-MS/MS system was comprised of an HTS-PAL autosampler (Leap Technologies, Carrboro, N.C.), an HP1200 HPLC (Agilent, Palo Alto, Calif.), and a MDS Sciex 4000 Q Trap system (Applied Biosystems, Foster City, Calif.). […] The total run time, including re-equilibration, for a single injection was 1.2 minutes. Mass spectrometric detection of the analytes was accomplished using the ion spray positive mode.
(§6) An efflux ratio is calculated from the mean apical to basolateral (A−B) Papp data and basolateral to apical (B−A) Papp data: Efflux ratio=Papp(B−A)/Papp(A−B)

[3] = molecular target: P-gp (MDR1) (Homo sapiens (Human), UniProt P08183); assay: MDR1 LLC-PK1 permeability assay: efflux ratio; conditions: pig, LLC-PK1
Sequence of P-gp (MDR1) (P08183 whole entry, species assumed): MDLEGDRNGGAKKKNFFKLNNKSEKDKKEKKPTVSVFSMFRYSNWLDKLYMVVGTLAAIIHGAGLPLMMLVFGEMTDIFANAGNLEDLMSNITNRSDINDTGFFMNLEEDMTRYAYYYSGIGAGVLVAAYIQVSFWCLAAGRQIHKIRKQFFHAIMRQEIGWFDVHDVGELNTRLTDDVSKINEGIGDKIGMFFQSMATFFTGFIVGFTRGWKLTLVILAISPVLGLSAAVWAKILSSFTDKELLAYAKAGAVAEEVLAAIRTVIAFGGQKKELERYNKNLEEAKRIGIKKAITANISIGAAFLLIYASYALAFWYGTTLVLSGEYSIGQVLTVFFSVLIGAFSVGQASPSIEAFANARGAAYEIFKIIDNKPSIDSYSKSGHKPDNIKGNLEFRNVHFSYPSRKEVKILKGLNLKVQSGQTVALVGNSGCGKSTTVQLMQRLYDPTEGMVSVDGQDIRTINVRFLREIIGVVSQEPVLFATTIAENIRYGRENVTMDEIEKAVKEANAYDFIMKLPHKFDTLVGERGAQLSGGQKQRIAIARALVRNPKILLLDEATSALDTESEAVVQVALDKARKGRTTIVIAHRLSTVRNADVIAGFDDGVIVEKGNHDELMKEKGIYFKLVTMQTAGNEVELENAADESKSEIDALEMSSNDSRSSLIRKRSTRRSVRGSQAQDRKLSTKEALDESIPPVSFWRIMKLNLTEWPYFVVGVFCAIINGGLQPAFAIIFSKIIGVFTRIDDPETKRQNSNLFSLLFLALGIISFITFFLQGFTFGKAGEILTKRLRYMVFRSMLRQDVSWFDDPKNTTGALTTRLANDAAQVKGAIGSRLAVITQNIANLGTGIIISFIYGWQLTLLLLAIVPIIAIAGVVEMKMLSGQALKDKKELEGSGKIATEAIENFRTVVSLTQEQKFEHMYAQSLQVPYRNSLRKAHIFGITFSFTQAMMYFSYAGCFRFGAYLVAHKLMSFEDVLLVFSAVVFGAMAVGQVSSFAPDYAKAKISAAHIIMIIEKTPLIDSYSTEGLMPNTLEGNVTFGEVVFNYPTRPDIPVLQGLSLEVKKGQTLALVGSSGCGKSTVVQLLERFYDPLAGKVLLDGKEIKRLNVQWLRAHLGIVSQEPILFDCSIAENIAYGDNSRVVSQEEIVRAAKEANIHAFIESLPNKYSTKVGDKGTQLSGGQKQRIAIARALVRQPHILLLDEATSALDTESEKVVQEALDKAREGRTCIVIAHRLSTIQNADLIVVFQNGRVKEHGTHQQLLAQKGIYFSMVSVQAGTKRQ
Protocol: (§7) Both LLC-PK1 and MDR1 transfected LLC-PK1 cells were cultured and plated according to manufacturer's recommendations with the exception that the passage media contained only 2% fetal bovine serum to extend passage time out to seven days.
as §2, §3, §4, §5, §6

[4] = MDR1 LLC-PK1 and BCRP MDCKII permeability assay: permeability coefficient (Papp)
Protocol: as §7, §1, §2, §3, §4, §5
where Cd, V, t and C0 are the detected concentration (μM), the volume on the dosing side (mL); the incubation time (s) and the initial dosing concentration (μM), respectively. The calculations for Papp were made for each replicate and then averaged.

[5] = averaged IC50, 60 min at ambient temperature, 11-point dosing, top dose 10 μM

| SMILES | IC50 [1, 5] | efflux ratio at 2 h, 1 µM [2] | efflux ratio at 2 h, 1 µM [3] | Papp at 2 h, 1 µM [4] | IC50 [1] |
| --- | --- | --- | --- | --- | --- |
| CCCS(=O)(=O)Nc1ccc(F)c(Nc2ccc3ncn(C4CCC4)c(=O)c3c2C)c1Cl [Example 33, N-(2-chloro-3-((3-cyclobutyl-5-methyl-4-oxo-3,4-dihydroquinazolin-6-yl)amino)-4-fluorophenyl)propane-1-sulfonamide trifluoroacetate] | 0.024 µM | 1.33 | 1.2 | 219 nm/s | – |
| Cc1c(Nc2c(F)ccc(NS(=O)(=O)c3ccccn3)c2Cl)ccc2ncn(C)c(=O)c12 [Example 26, N-(2-chloro-3-((3,5-dimethyl-4-oxo-3,4-dihydroquinazolin-6-yl)amino)-4-fluorophenyl)pyridine-2-sulfonamide] | 0.0492 µM | 6.46 | 2.04 | 302 nm/s | – |
| CCCS(=O)(=O)Nc1cc(F)cc(Nc2ccc3ncn(C)c(=O)c3c2C)c1F [Example 11, N-(3-((3,5-dimethyl-4-oxo-3,4-dihydroquinazolin-6-yl)amino)-2,5-difluorophenyl)propane-1-sulfonamide] | 0.0161 µM | 2.35 | 1.65 | 286 nm/s | – |
| [2H]C([2H])([2H])n1cnc2ccc(Nc3c(F)ccc(NS(=O)(=O)CCC)c3Cl)c(C)c2c1=O [Example 24, N-(2-chloro-4-fluoro-3-((5-methyl-3-(methyl-d3)-4-oxo-3,4-dihydroquinazolin-6-yl)amino)phenyl)propane-1-sulfonamide] | – | 1.18 | 1.59 | 256 nm/s | 0.00905 µM |
| CCCS(=O)(=O)Nc1ccc(F)c(Nc2ccc3ncn(CC)c(=O)c3c2C)c1Cl [Example 37, N-(2-chloro-3-((3-ethyl-5-methyl-4-oxo-3,4-dihydroquinazolin-6-yl)amino)-4-fluorophenyl)propane-1-sulfonamide trifluoroacetate] | 0.0055 µM | 0.87 | 0.94 | 299 nm/s | – |
| CCCS(=O)(=O)Nc1ccc(F)c(Nc2ccc3ncn(-c4ccccc4)c(=O)c3c2C)c1Cl [Example 32, N-(2-chloro-4-fluoro-3-((5-methyl-4-oxo-3-phenyl-3,4-dihydroquinazolin-6-yl)amino)phenyl)propane-1-sulfonamide trifluoroacetate] | 0.0927 µM | 1 | 0.86 | 156 nm/s | – |
| CCCS(=O)(=O)Nc1ccc(F)c(Oc2ccc3ncn(C)c(=O)c3c2C)c1F [Example 71, N-(3-((3,5-dimethyl-4-oxo-3,4-dihydroquinazolin-6-yl)oxy)-2,4-difluorophenyl)propane-1-sulfonamide] | 0.0164 µM | 0.86 | 2.4 | 251 nm/s | – |
| Cc1c(Oc2cccc(NS(=O)(=O)CCCF)c2F)ccc2ncn(C)c(=O)c12 [Example 80, N-(3-((3,5-dimethyl-4-oxo-3,4-dihydroquinazolin-6-yl)oxy)-2-fluorophenyl)-3-fluoropropane-1-sulfonamide] | 0.0208 µM | 2.03 | 1.3 | 425 nm/s | – |
| CCCS(=O)(=O)Nc1cc(F)cc(Oc2ccc3ncn(C)c(=O)c3c2C)c1F [Example 76, N-(3-((3,5-dimethyl-4-oxo-3,4-dihydroquinazolin-6-yl)oxy)-2,5-difluorophenyl)propane-1-sulfonamide] | 0.0051 µM | 1.26 | 1.45 | 318 nm/s | – |
| CCCS(=O)(=O)Nc1ncc(F)c(Oc2ccc3ncn(C)c(=O)c3c2C)c1F [Example 62, N-(4-((3,5-dimethyl-4-oxo-3,4-dihydroquinazolin-6-yl)oxy)-3,5-difluoropyridin-2-yl)propane-1-sulfonamide] | 0.0158 µM | 22.5 | 2.3 | 263 nm/s | – |
| CCCS(=O)(=O)Nc1cccc(Oc2ccc3ncn(C)c(=O)c3c2C)c1C#N [Example 66, N-{2-Cyano-3-[(3,5-dimethyl-4-oxo-3,4-dihydroquinazolin-6-yl)oxy]phenyl}propane-1-sulfonamide] | 0.00408 µM | 27.9 | 1.7 | 232 nm/s | – |
| CCCS(=O)(=O)Nc1ncc(F)c(Nc2ccc3ncn(C)c(=O)c3c2C)c1F [Example 16, N-(4-((3,5-dimethyl-4-oxo-3,4-dihydroquinazolin-6-yl)amino)-3,5-difluoropyridin-2-yl)propane-1-sulfonamide] | 0.017 µM | 20.3 | 4.76 | 213 nm/s | – |
| Cc1c(Nc2c(F)c(F)cc(NS(=O)(=O)CCCF)c2F)ccc2ncn(C)c(=O)c12 [Example 6, N-(3-((3,5-dimethyl-4-oxo-3,4-dihydroquinazolin-6-yl)amino)-2,4,5-trifluorophenyl)-3-fluoropropane-1-sulfonamide] | 0.00175 µM | 25.2 | 4.68 | 222 nm/s | – |
| CCCS(=O)(=O)Nc1ncc(F)c(Nc2ccc3ncn(C)c(=O)c3c2C)c1Cl [Example 18, N-(3-chloro-4-((3,5-dimethyl-4-oxo-3,4-dihydroquinazolin-6-yl)amino)-5-fluoropyridin-2-yl)propane-1-sulfonamide] | 0.00785 µM | 10.4 | 1.52 | 279 nm/s | – |
| CCCS(=O)(=O)Nc1ccc(F)c(Nc2ccc3ncn(C)c(=O)c3c2C)c1C [Example 41, N-(3-((3,5-dimethyl-4-oxo-3,4-dihydroquinazolin-6-yl)amino)-4-fluoro-2-methylphenyl)propane-1-sulfonamide] | 2.82 µM | 3.28 | 2.79 | 298 nm/s | – |
| Cc1c(Nc2c(F)ccc(NS(=O)(=O)N3CCCC3)c2Cl)ccc2ncn(C)c(=O)c12 [Example 21, N-(2-chloro-3-((3,5-dimethyl-4-oxo-3,4-dihydroquinazolin-6-yl)amino)-4-fluorophenyl)pyrrolidine-1-sulfonamide] | 0.0347 µM | 0.77 | 1.22 | 192 nm/s | – |
| Cc1c(Nc2c(F)ccc(NS(=O)(=O)c3cc(F)ccc3F)c2Cl)ccc2ncn(C)c(=O)c12 [Example 25, N-(2-chloro-3-((3,5-dimethyl-4-oxo-3,4-dihydroquinazolin-6-yl)amino)-4-fluorophenyl)-2,5-difluorobenzenesulfonamide] | 0.00034 µM | 1.8 | 1.82 | 221 nm/s | – |
| CCCS(=O)(=O)Nc1ccc(F)c(Nc2ccc3ncn(CCOC)c(=O)c3c2C)c1Cl [Example 30, N-(2-chloro-4-fluoro-3-((3-(2-methoxyethyl)-5-methyl-4-oxo-3,4-dihydroquinazolin-6-yl)amino)phenyl)propane-1-sulfonamide] | 0.0455 µM | 1.92 | 2.59 | 248 nm/s | – |
| CCCS(=O)(=O)Nc1ccc(F)c(Oc2ccc3ncn(C)c(=O)c3c2C)c1C#N [Example 69, N-(2-cyano-3-((3,5-dimethyl-4-oxo-3,4-dihydroquinazolin-6-yl)oxy)-4-fluorophenyl)propane-1-sulfonamide] | 0.00046 µM | 23.8 | 4.1 | 244 nm/s | – |
| Cc1c(Oc2c(F)cnc(NS(=O)(=O)CCCF)c2F)ccc2ncn(C)c(=O)c12 [Example 64, N-(4-((3,5-dimethyl-4-oxo-3,4-dihydroquinazolin-6-yl)oxy)-3,5-difluoropyridin-2-yl)-3-fluoropropane-1-sulfonamide] | 0.0104 µM | 31 | 10.9 | 97.8 nm/s | – |
| CCC(C)S(=O)(=O)Nc1ccc(F)c(Nc2ccc3ncn(C)c(=O)c3c2C)c1Cl (stereo not drawn) [Example 61, N-(2-chloro-3-((3,5-dimethyl-4-oxo-3,4-dihydroquinazolin-6-yl)amino)-4-fluorophenyl)butane-2-sulfonamide] | 0.0977 µM | 0.84 | 1.2 | 266 nm/s | – |
| CCCS(=O)(=O)Nc1cc(F)c(F)c(Oc2ccc3ncn(C)c(=O)c3c2C)c1Cl [Example 73, N-(2-chloro-3-((3,5-dimethyl-4-oxo-3,4-dihydroquinazolin-6-yl)oxy)-4,5-difluorophenyl)propane-1-sulfonamide] | 0.00155 µM | 0.3 | 0.93 | 475 nm/s | – |
| COCCS(=O)(=O)Nc1ccc(F)c(Nc2ccc3ncn(C)c(=O)c3c2C)c1Cl [Example 27, N-(2-chloro-3-((3,5-dimethyl-4-oxo-3,4-dihydroquinazolin-6-yl)amino)-4-fluorophenyl)-2-methoxyethane-1-sulfonamide] | 0.207 µM | 2.09 | 1.4 | 345 nm/s | – |
| CCCS(=O)(=O)Nc1cc(F)cc(Oc2ccc3ncn(C)c(=O)c3c2C)c1Cl [Example 74, N-(2-chloro-3-((3,5-dimethyl-4-oxo-3,4-dihydroquinazolin-6-yl)oxy)-5-fluorophenyl)propane-1-sulfonamide] | 0.00355 µM | 0.92 | 1.13 | 284 nm/s | – |
